In patent US20260285872A1, “COMPOUNDS AND METHODS FOR DEGRADING GSPT1” (priority 2023, published 2026):

Test system: NCI-H1155 cells
Assay: NSCLC cell viability, CellTiter-Glo, NCI-H1155 cells
Type: cell-based
Conditions: Homo sapiens; NCI-H1155 cells, CellTiter-Glo, 72 hours of treatment; read-out: Cell viability classification (NCI-H1155)

| IC50 [nM] | Structure (SMILES) |
| --- | --- |
| 100 to 1000 | O=C1CCC(N2Cc3cc(C(=O)N4CC(c5ccc(F)cc5)C4)ccc3C2=O)C(=O)N1 (stereo not shown) [Example 192, 3-(5-(3-(4-fluorophenyl)azetidine-1-carbonyl)-1-oxoisoindolin-2-yl)piperidine-2,6-dione] |
| 100 to 1000 | O=C1CCC(N2Cc3cc(C(=O)N4CC(c5cccc(F)c5)C4)ccc3C2=O)C(=O)N1 (stereo not shown) [Example 193, 3-(5-(3-(3-fluorophenyl)azetidine-1-carbonyl)-1-oxoisoindolin-2-yl)piperidine-2,6-dione] |
| 100 to 1000 | O=C1CCC(c2nc3ccc(COC(=O)Nc4cc(OC(F)(F)F)ccc4F)cc3o2)C(=O)N1 (stereo not shown) [Example 212, (2-(2,6-dioxopiperidin-3-yl)benzo[d]oxazol-6-yl)methyl (2-fluoro-5-(trifluoromethoxy)phenyl)carbamate] |
| 100 to 1000 | O=C1CCC(N2Cc3cc(C(=O)NC4CC5(C=C(c6ccc(OC(F)(F)F)cc6)C5)C4)ccc3C2=O)C(=O)N1 (stereo not shown) [Example 213, 2-(2,6-dioxopiperidin-3-yl)-1-oxo-N-(6-(4-(trifluoromethoxy)phenyl)spiro[3.3]hept-5-en-2-yl)isoindoline-5-carboxamide] |
| 100 to 1000 | O=C1CCC(N2Cc3cc(C(=O)NC4CC5(C=C(c6ccc(F)cc6F)C5)C4)ccc3C2=O)C(=O)N1 (stereo not shown) [Example 214, N-(6-(2,4-difluorophenyl)spiro[3.3]hept-5-en-2-yl)-2-(2,6-dioxopiperidin-3-yl)-1-oxoisoindoline-5-carboxamide] |
| > 1000 | O=C1CCC(c2nc3ccc(C(=O)N4CC5(CCC(F)(F)CC5)C4)cc3o2)C(=O)N1 (stereo not shown) [Example 220, 3-(6-(7,7-difluoro-2-azaspiro[3.5]nonane-2-carbonyl)benzo[d]oxazol-2-yl)piperidine-2,6-dione] |
| 100 to 1000 | O=C1CCC(c2nc3ccc(C(=O)N4CC5(CC=C(F)CC5)C4)cc3o2)C(=O)N1 (stereo not shown) [Example 221, 3-(6-(7-fluoro-2-azaspiro[3.5]non-6-ene-2-carbonyl)benzo[d]oxazol-2-yl)piperidine-2,6-dione] |
| 10 to 100 | O=C1CCC(N2Cc3cc(C(=O)N4CC5(CCC(C(F)(F)F)C5)C4)ccc3C2=O)C(=O)N1 (stereo not shown) [Example 222, 3-(1-oxo-5-(6-(trifluoromethyl)-2-azaspiro[3.4]octane-2-carbonyl)isoindolin-2-yl)piperidine-2,6-dione] |
| 10 to 100 | O=C1CCC(N2Cc3cc(C(=O)N4CC5(CC(c6ccc(F)c(F)c6)C5)C4)ccc3C2=O)C(=O)N1 (stereo not shown) [Example 228, 3-(5-(6-(3,4-difluorophenyl)-2-azaspiro[3.3]heptane-2-carbonyl)-1-oxoisoindolin-2-yl)piperidine-2,6-dione] |
| 10 to 100 | O=C1CCC(N2Cc3cc(C(=O)N4CC5(CC(c6ccc(F)cc6F)C5)C4)ccc3C2=O)C(=O)N1 (stereo not shown) [Example 229, 3-(5-(6-(2,4-difluorophenyl)-2-azaspiro[3.3]heptane-2-carbonyl)-1-oxoisoindolin-2-yl)piperidine-2,6-dione] |
| 100 to 1000 | N#Cc1ccc(C2CC3(C2)CN(C(=O)c2ccc4c(c2)CN(C2CCC(=O)NC2=O)C4=O)C3)cc1 (stereo not shown) [Example 232, 4-(2-(2-(2,6-dioxopiperidin-3-yl)-1-oxoisoindoline-5-carbonyl)-2-azaspiro[3.3]heptan-6-yl)benzonitrile] |
| > 1000 | COc1ccc(C2CC3(C2)CN(C(=O)c2ccc4c(c2)CN(C2CCC(=O)NC2=O)C4=O)C3)cc1 (stereo not shown) [Example 233, 3-(5-(6-(4-methoxyphenyl)-2-azaspiro[3.3]heptane-2-carbonyl)-1-oxoisoindolin-2-yl)piperidine-2,6-dione] |
| 10 to 100 | O=C1CCC(N2Cc3cc(C(=O)N4CC5(C=C(c6ccc(F)c(F)c6)C5)C4)ccc3C2=O)C(=O)N1 (stereo not shown) [Example 234, 3-(5-(6-(3,4-difluorophenyl)-2-azaspiro[3.3]hept-5-ene-2-carbonyl)-1-oxoisoindolin-2-yl)piperidine-2,6-dione] |
| 100 to 1000 | N#Cc1ccccc1C1=CC2(C1)CN(C(=O)c1ccc3c(c1)CN(C1CCC(=O)NC1=O)C3=O)C2 (stereo not shown) [Example 238, 2-(2-(2-(2,6-dioxopiperidin-3-yl)-1-oxoisoindoline-5-carbonyl)-2-azaspiro[3.3]hept-5-en-6-yl)benzonitrile] |
| 100 to 1000 | N#Cc1ccccc1C1CC2(C1)CN(C(=O)c1ccc3c(c1)CN(C1CCC(=O)NC1=O)C3=O)C2 (stereo not shown) [Example 239, 2-(2-(2-(2,6-dioxopiperidin-3-yl)-1-oxoisoindoline-5-carbonyl)-2-azaspiro[3.3]heptan-6-yl)benzonitrile] |
| 10 to 100 | N#Cc1ccc(C2=CC3(C2)CN(C(=O)c2ccc4c(c2)CN(C2CCC(=O)NC2=O)C4=O)C3)cc1 (stereo not shown) [Example 242, 4-(2-(2-(2,6-dioxopiperidin-3-yl)-1-oxoisoindoline-5-carbonyl)-2-azaspiro[3.3]hept-5-en-6-yl)benzonitrile] |
| 10 to 100 | O=C1CCC(N2Cc3cc(C(=O)N4CC5(CC(c6ccc(C(F)(F)F)c(F)c6)C5)C4)ccc3C2=O)C(=O)N1 (stereo not shown) [Example 245, 3-(5-(6-(3-fluoro-4-(trifluoromethyl)phenyl)-2-azaspiro[3.3]heptane-2-carbonyl)-1-oxoisoindolin-2-yl)piperidine-2,6-dione] |
| 10 to 100 | O=C1CCC(N2Cc3cc(C(=O)N4CC5(CC(c6ccc(C(F)(F)F)cc6F)C5)C4)ccc3C2=O)C(=O)N1 (stereo not shown) [Example 246, 3-(5-(6-(2-fluoro-4-(trifluoromethyl)phenyl)-2-azaspiro[3.3]heptane-2-carbonyl)-1-oxoisoindolin-2-yl)piperidine-2,6-dione] |
| 10 to 100 | O=C1CCC(N2Cc3cc(C(=O)N4CCC5(C=C(c6ccc(F)cc6)C5)C4)ccc3C2=O)C(=O)N1 (stereo not shown) [Example 247, 3-(5-(2-(4-fluorophenyl)-6-azaspiro[3.4]oct-1-ene-6-carbonyl)-1-oxoisoindolin-2-yl)piperidine-2,6-dione] |
| 10 to 100 | O=C1CCC(N2Cc3cc(C(=O)N4CCC5(CC(c6ccc(F)cc6)C5)C4)ccc3C2=O)C(=O)N1 (stereo not shown) [Example 248, 3-(5-(2-(4-fluorophenyl)-6-azaspiro[3.4]octane-6-carbonyl)-1-oxoisoindolin-2-yl)piperidine-2,6-dione] |
| 10 to 100 | O=C1CCC(N2Cc3cc(C(=O)N4CCC5(C=C(c6cccc(F)c6)C5)C4)ccc3C2=O)C(=O)N1 (stereo not shown) [Example 249, 3-(5-(2-(3-fluorophenyl)-6-azaspiro[3.4]oct-1-ene-6-carbonyl)-1-oxoisoindolin-2-yl)piperidine-2,6-dione] |
| 100 to 1000 | O=C1CCC(N2Cc3cc(C(=O)N4CCC5(CC(c6cccc(F)c6)C5)C4)ccc3C2=O)C(=O)N1 (stereo not shown) [Example 250, 3-(5-(2-(3-fluorophenyl)-6-azaspiro[3.4]octane-6-carbonyl)-1-oxoisoindolin-2-yl)piperidine-2,6-dione] |
| 100 to 1000 | O=C1CCC(N2Cc3cc(C(=O)N4CC5(CCC(C(F)(F)F)CC5)C4)ccc3C2=O)C(=O)N1 (stereo not shown) [Example 251, 3-(1-oxo-5-(7-(trifluoromethyl)-2-azaspiro[3.5]nonane-2-carbonyl)isoindolin-2-yl)piperidine-2,6-dione] |
| > 1000 | O=C1CCC(c2nc3ccc(C(=O)N4CC5(CCC(C(F)(F)F)C5)C4)cc3o2)C(=O)N1 (stereo not shown) [Example 252, 3-(6-(6-(trifluoromethyl)-2-azaspiro[3.4]octane-2-carbonyl)benzo[d]oxazol-2-yl)piperidine-2,6-dione] |

| Structure (SMILES) | IC50 [nM] |
| --- | --- |
| O=C1CCC(N2Cc3cc(C(=O)N4CC(c5ccccc5F)C4)ccc3C2=O)C(=O)N1 (stereo not shown) [Example 194, 3-(5-(3-(2-fluorophenyl)azetidine-1-carbonyl)-1-oxoisoindolin-2-yl)piperidine-2,6-dione] | 100 to 1000 |
| O=C1CCC(N2Cc3cc(C(=O)NC4CC5(C=C(c6ccc(F)c(F)c6)C5)C4)ccc3C2=O)C(=O)N1 (stereo not shown) [Example 215, N-(6-(3,4-difluorophenyl)spiro[3.3]hept-5-en-2-yl)-2-(2,6-dioxopiperidin-3-yl)-1-oxoisoindoline-5-carboxamide] | 100 to 1000 |
| N#Cc1ccc(C2=CC3(C2)CC(NC(=O)c2ccc4c(c2)CN(C2CCC(=O)NC2=O)C4=O)C3)cc1 (stereo not shown) [Example 216, N-(6-(4-cyanophenyl)spiro[3.3]hept-5-en-2-yl)-2-(2,6-dioxopiperidin-3-yl)-1-oxoisoindoline-5-carboxamide] | 100 to 1000 |
| O=C1CCC(c2nc3cc(COC(=O)Nc4ccc(OC(F)(F)F)cc4F)ccc3o2)C(=O)N1 (stereo not shown) [Example 223, (2-(2,6-dioxopiperidin-3-yl)benzo[d]oxazol-5-yl)methyl (2-fluoro-4-(trifluoromethoxy)phenyl)carbamate] | 100 to 1000 |
| O=C1CCC(c2nc3cc(COC(=O)Nc4cc(Cl)ccc4F)ccc3o2)C(=O)N1 (stereo not shown) [Example 224, (2-(2,6-dioxopiperidin-3-yl)benzo[d]oxazol-5-yl)methyl (5-chloro-2-fluorophenyl)carbamate] | 100 to 1000 |
| O=C1CCC(N2Cc3cc(C(=O)NC4CC5(C4)CC(O)(c4ccc(F)cc4)C5)ccc3C2=O)C(=O)N1 (stereo not shown) [Example 225, 2-(2,6-dioxopiperidin-3-yl)-N-(6-(4-fluorophenyl)-6-hydroxyspiro[3.3]heptan-2-yl)-1-oxoisoindoline-5-carboxamide] | > 1000 |
| COc1ccc(C2=CC3(C2)CN(C(=O)c2ccc4c(c2)CN(C2CCC(=O)NC2=O)C4=O)C3)cc1 (stereo not shown) [Example 237, 3-(5-(6-(4-methoxyphenyl)-2-azaspiro[3.3]hept-5-ene-2-carbonyl)-1-oxoisoindolin-2-yl)piperidine-2,6-dione] | > 1000 |
| O=C1CCC(N2Cc3cc(C(=O)N4CC5(C4)CC(O)(c4ccc(F)cc4)C5)ccc3C2=O)C(=O)N1 (stereo not shown) [Example 243, 3-(5-(6-(4-fluorophenyl)-6-hydroxy-2-azaspiro[3.3]heptane-2-carbonyl)-1-oxoisoindolin-2-yl)piperidine-2,6-dione] | > 1000 |
| COC1(c2ccc(F)cc2)CC2(CN(C(=O)c3ccc4c(c3)CN(C3CCC(=O)NC3=O)C4=O)C2)C1 (stereo not shown) [Example 244, 3-(5-(6-(4-fluorophenyl)-6-methoxy-2-azaspiro[3.3]heptane-2-carbonyl)-1-oxoisoindolin-2-yl)piperidine-2,6-dione] | 100 to 1000 |
| O=C1CCC(c2nc3cc(COC(=O)NC4CC5(C4)CC(F)(F)C5)ccc3o2)C(=O)N1 (stereo not shown) [Example 253, (2-(2,6-dioxopiperidin-3-yl)benzo[d]oxazol-5-yl)methyl (6,6-difluorospiro[3.3]heptan-2-yl)carbamate] | > 1000 |
